Molecular target: Gastrin-releasing peptide receptor (Rattus norvegicus) (UniProt P52500)
Assay: Binding affinity to rat pancreatic acini GRPR

Gastrin-releasing peptide receptor (Rattus norvegicus), sequence (P52500 whole entry): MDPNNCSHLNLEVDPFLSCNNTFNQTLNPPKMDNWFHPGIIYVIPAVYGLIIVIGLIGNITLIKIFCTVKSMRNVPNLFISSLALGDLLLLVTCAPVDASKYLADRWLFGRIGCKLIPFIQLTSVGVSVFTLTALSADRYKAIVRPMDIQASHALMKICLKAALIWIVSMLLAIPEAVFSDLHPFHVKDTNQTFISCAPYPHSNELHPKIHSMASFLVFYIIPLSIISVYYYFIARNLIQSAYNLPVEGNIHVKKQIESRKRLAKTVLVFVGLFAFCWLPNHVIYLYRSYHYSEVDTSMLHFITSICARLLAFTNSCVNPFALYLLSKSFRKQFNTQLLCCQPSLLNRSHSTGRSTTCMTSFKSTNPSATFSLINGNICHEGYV

Activity: 0.9 nM
Compound: CC(C)C[C@H](NC(=O)C[C@H](O)[C@H](CC(C)C)NC(=O)[C@H](Cc1cnc[nH]1)NC(=O)CNC(=O)[C@@H](NC(=O)[C@H](C)NC(=O)[C@H](Cc1c[nH]c2ccccc12)NC(=O)[C@H](CCC(N)=O)NC(=O)[C@H](N)Cc1ccccc1)C(C)C)C(N)=O
